Laboratory results as given in publication PMC6403271, “Characterization, mechanism of action and optimization of activity of a novel peptide-peptoid hybrid against bacterial pathogens involved in canine skin infections” (Scientific Reports, 2019).
Read-outs that look alike come from different tables or passages of the source. Square brackets hold non-standard residues; d marks the D form. Peptide text beside a SMILES is read from it. N(1-naphthylmethyl)Gly = O=C(O)CNCc1cccc2ccccc12; 1Nal = N[C@@H](Cc1cccc2ccccc12)C(=O)O; 2Nal = N[C@@H](Cc1ccc2ccccc2c1)C(=O)O; d1Nal = N[C@H](Cc1cccc2ccccc12)C(=O)O; d2Nal = N[C@H](Cc1ccc2ccccc2c1)C(=O)O; Nle = CCCC[C@H](N)C(=O)O; Nphe = O=C(O)CNCc1ccccc1; NBuGly = CCCCNCC(=O)O

Assays:
MRSP C22963 = format: cell-based, Staphylococcus pseudintermedius
Experimental: (§1) Activity of B1 was tested on 50P. aeruginosa isolates and 57S. pseudintermedius isolates (including 7 MRSP) that had been isolated in the diagnostic laboratory Sund Vet Diagnostik (University of Copenhagen) from various infections in dogs between 2009 and 2011. Representative MRSP (C22963), MSSA, and P. aeruginosa (26314) were used for testing the first set of B1 analogues.
(§2) MIC determination was performed by broth microdilution according to the Clinical and Laboratory Standard Institute (CLSI, M31-A3, 2008)[62]. In brief, each bacterial strain was diluted to concentration of 5 × 10^5 CFU/mL in Mueller Hinton broth II (MHB II) media (Oxoid) and added to a two-fold serial dilution of peptides and peptide-peptoid hybrids concentrations ranging from 1 to 64 µg/ml in 96-well plates (Nunc Internationals, Rochester, NY). The MICs were determined as a lowest concentration showing no visible growth after incubation for 18 hours at 37 °C. Experiments were performed in triplicates on two different days.

MSSA (ATCC 29213) = format: cell-based, Staphylococcus aureus
Experimental: as §1, §2

P. aeruginosa (26314) = format: cell-based, Pseudomonas aeruginosa
Experimental: Activity of B1 was tested on […]. aeruginosa isolates and […]. pseudintermedius isolates (including 7 MRSP) that had been isolated in the diagnostic laboratory Sund Vet Diagnostik (University of Copenhagen) from various infections in dogs between 2009 and 2011. Representative […], and P. aeruginosa (26314) were used for testing the first set of B1 analogues. For antibacterial spectrum the following strains were used: Corynebacterium auriscanis, 31551, (54 C6, dog, ear, 2013); Enterococcus faecalis, 27404, (17 C7, dog, wound, 2011); Enterococcus faecium, 30951, (24 C1, dog, ear, 2013); Streptococcus canis, 26740-1, (14 H1, dog, ear, 2010); Staphylococcus aureus, 27266, (16 G9, dog, skin, 2010); Staphylococcus aureus, 27266, (16 G9, dog, skin, 2010); Staphylococcus pseudintermedius 22963, (3 B9, dog, 2007). Acinetobacter baumannii, 27065, (16 D1, dog, wound, 2010); E. coli, 30235, 23 A6, dog, wound, 2012; Klebsiella pneumoniae, 26233, (11 H5, dog, wound, 2010); Pasteurella canis, 31096, (24 C8, dog, skin, 2013); Proteus mirabilis, 25178, (9 A4, dog, ear, 2009); Pseudomonas aeruginosa 26314, 12 C5, dog, urine, 2010). MIC determination was performed by broth microdilution according to the Clinical and Laboratory Standard Institute (CLSI, […]-A3, 2008)[62]. In brief, each bacterial strain was diluted to concentration of 5 × 10^5 CFU/mL in Mueller Hinton broth II (MHB II) media (Oxoid) and added to a two-fold serial dilution of peptides and peptide-peptoid hybrids concentrations ranging from 1 to 64 μg/ml in 96-well plates (Nunc Internationals, Rochester, NY). The MICs were determined as a lowest concentration showing no visible growth after incubation for 18 hours at 37 °C. Experiments were performed in triplicates on two different days.

[1] = format: cell-based, human; details: human
Experimental: (§3) Briefly, two-fold serial dilutions (2.35 to 150 μM) of compounds in phosphate buffer saline (PBS) were mixed with equal volume of 0.5% v/v suspension of fresh human red blood cells (RBC) in the same buffer. After 1 h incubation at 37 °C, plates were centrifuged and aliquots of the supernatants were transferred to clear 96-well plates. Absorbance at 414 nm was measured and normalized using a negative (PBS, 0%) and a positive (melittin, 100%) control. The EC10 and EC50 are concentrations at which 10% and 50% of RBC were lysed, respectively, as interpolated graphically by the y-axis intersection of the plotted data.

human red blood cells = format: cell-based; details: for EC50: red cells of human, 1 h
Experimental: as §3

Row | Compound | Minimum Inhibitory Concentration MRSP C22963 (MRSP C22963; 18 h) | Minimum Inhibitory Concentration MSSA (ATCC 29213) (MSSA (ATCC 29213); ATCC 29213, 18 h) | Minimum Inhibitory Concentration P. aeruginosa (26314) (P. aeruginosa (26314); 26314, 18 h) | hemolysis at 1 h, 150 µM [1] | Minimum Inhibitory Concentration P. aeruginosa (26314) (P. aeruginosa (26314); Table 1) | Haemolysis EC10 (human red blood cells) | EC50 (human red blood cells) | Minimum Inhibitory Concentration MRSP C22963 (MRSP C22963; Table 1) | Minimum Inhibitory Concentration MSSA (ATCC 29213) (MSSA (ATCC 29213); Table 1) | Haemolysis %H 150(µM) (human red blood cells; 150 µM)
1 | CCCCN(CC(=O)N[C@@H](CCCCN)C(=O)N(CC(=O)N(CC(=O)N(CC(N)=O)Cc1cccc2ccccc12)Cc1ccccc1)Cc1cccc2ccccc12)C(=O)[C@H](CCCCN)NC(=O)[C@@H](N)CCCCN [Compound 2, Lys-Lys-(NBu)Gly-Lys-(N1-Nal)Gly-(NPhe)Gly-(N1-Nal)Gly] (H-KK[NBuGly]K[N(1-naphthylmethyl)Gly][Nphe][N(1-naphthylmethyl)Gly]-NH2; N-terminus assumed) | 4 µg/mL | 8 to 16 µg/mL | 32 µg/mL | < 8% | – | – | – | – | – | –
2 | CCCCN(CC(=O)N(CC(=O)N(CC(=O)N(CC(N)=O)Cc1cccc2ccccc12)Cc1ccccc1)Cc1cccc2ccccc12)C(=O)[C@H](CCCCN)NC(=O)[C@H](CCCCN)NC(=O)[C@@H](N)CCCCN [Compound 3, Lys-Lys-Lys-(NBu)Gly-(N1-Nal)Gly-(NPhe)Gly-(N1-Nal)Gly] (H-KKK[NBuGly][N(1-naphthylmethyl)Gly][Nphe][N(1-naphthylmethyl)Gly]-NH2; N-terminus assumed) | 4 µg/mL | 16 µg/mL | 32 µg/mL | < 8% | – | – | – | – | – | –
3 | CCCCN(CC(=O)N[C@@H](CCCCN)C(=O)N[C@@H](CCCCN)C(N)=O)C(=O)[C@H](CCCCN)NC(=O)CN(Cc1cccc2ccccc12)C(=O)CN(Cc1ccccc1)C(=O)CNCc1cccc2ccccc12 [Compound 5, (N1-Nal)Gly-(NPhe)Gly-(N1-Nal)Gly-Lys-(NBu)Gly-Lys-Lys] (H-[N(1-naphthylmethyl)Gly][Nphe][N(1-naphthylmethyl)Gly]K[NBuGly]KK-NH2; N-terminus assumed) | 8 µg/mL | 16 µg/mL | 32 µg/mL | < 8% | – | – | – | – | – | –
4 | CC(C)C[C@H](NC(=O)[C@H](CCCCN)NC(=O)[C@H](Cc1cccc2ccccc12)NC(=O)[C@H](Cc1ccccc1)NC(=O)[C@@H](N)Cc1cccc2ccccc12)C(=O)N[C@@H](CCCCN)C(=O)N[C@@H](CCCCN)C(N)=O [Compound 10, (1-Nal)Ala-Phe-(1-Nal)Ala-Lys-Leu-Lys-Lys] (H-[1Nal]F[1Nal]KLKK-NH2; N-terminus assumed) | 8 to 16 µg/mL | 16 to 32 µg/mL | 64 µg/mL | < 8% | – | – | – | – | – | –
5 | CC(C)C[C@H](NC(=O)[C@H](CCCCN)NC(=O)[C@H](Cc1ccc2ccccc2c1)NC(=O)[C@H](Cc1ccccc1)NC(=O)[C@@H](N)Cc1ccc2ccccc2c1)C(=O)N[C@@H](CCCCN)C(=O)N[C@@H](CCCCN)C(N)=O [Compound 11, (2-Nal)Ala-Phe -(2-Nal)Ala-Lys-Leu-Lys-Lys] (H-[2Nal]F[2Nal]KLKK-NH2; N-terminus assumed) | 4 to 8 µg/mL | 16 µg/mL | 64 µg/mL | < 8% | – | – | – | – | – | –
6 | CC(C)C[C@H](NC(=O)[C@H](Cc1cccc2ccccc12)NC(=O)[C@H](Cc1ccccc1)NC(=O)[C@@H](N)Cc1cccc2ccccc12)C(=O)N[C@@H](CCCCN)C(=O)N[C@@H](CCCCN)C(=O)N[C@@H](CCCCN)C(N)=O [Compound 12, (1-Nal)Ala-Phe-(1-Nal)Ala-Leu-Lys-Lys-Lys] (H-[1Nal]F[1Nal]LKKK-NH2; N-terminus assumed) | 16 µg/mL | 32 µg/mL | >64 µg/mL | < 8% | – | – | – | – | – | –
7 | CC(C)C[C@@H](NC(=O)[C@H](CCCCN)NC(=O)[C@@H](Cc1ccc2ccccc2c1)NC(=O)[C@@H](Cc1ccccc1)NC(=O)[C@H](N)Cc1ccc2ccccc2c1)C(=O)N[C@@H](CCCCN)C(=O)N[C@@H](CCCCN)C(N)=O [Compound 18, (2-Nal)ala-phe-(2-Nal)ala-Lys-leu-Lys-Lys] (H-[d2Nal][dF][d2Nal]K[dL]KK-NH2; N-terminus assumed) | 16 µg/mL | 32 to 64 µg/mL | >64 µg/mL | < 8% | – | – | – | – | – | –
8 | CC(C)C[C@@H](NC(=O)[C@@H](Cc1ccc2ccccc2c1)NC(=O)[C@@H](Cc1ccccc1)NC(=O)[C@H](N)Cc1ccc2ccccc2c1)C(=O)N[C@@H](CCCCN)C(=O)N[C@@H](CCCCN)C(=O)N[C@@H](CCCCN)C(N)=O [Compound 19, (2-Nal)ala-phe-(2-Nal)ala-leu-Lys-Lys-Lys] (H-[d2Nal][dF][d2Nal][dL]KKK-NH2; N-terminus assumed) | 16 µg/mL | 32 µg/mL | >64 µg/mL | < 8% | – | – | – | – | – | –
9 | CC(C)C[C@@H](NC(=O)[C@H](CCCCN)NC(=O)[C@H](CCCCN)NC(=O)[C@@H](N)CCCCN)C(=O)N[C@H](Cc1cccc2ccccc12)C(=O)N[C@H](Cc1ccc(O)cc1)C(=O)N[C@H](Cc1cccc2ccccc12)C(N)=O [Compound 25, Lys-Lys-Lys-leu-(1-Nal)ala-tyr-(1-Nal)ala] (H-KKK[dL][d1Nal][dY][d1Nal]-NH2; N-terminus assumed) | 2 to 4 µg/mL | – | – | 53% | 8 µg/mL | 38 µM | 138 µM | – | – | –
10 | CCCC[C@H](NC(=O)[C@H](CCCCN)NC(=O)[C@H](CCCCN)NC(=O)[C@@H](N)CCCCN)C(=O)N[C@@H](Cc1ccc2ccccc2c1)C(=O)N[C@@H](Cc1ccc(O)cc1)C(=O)N[C@@H](Cc1ccc2ccccc2c1)C(N)=O [Compound 27, Lys-Lys-Lys-Nle-(2-Nal)Ala-Tyr-(2-Nal)Ala] (H-KKK[Nle][2Nal]Y[2Nal]-NH2; N-terminus assumed) | 2 to 4 µg/mL | – | 64 µg/mL | 54% | – | 3 µM | 56 µM | – | – | –
11 | CC(C)C[C@@H](NC(=O)[C@H](CCCCN)NC(=O)[C@H](CCCCN)NC(=O)[C@@H](N)CCCCN)C(=O)N[C@H](Cc1ccc2ccccc2c1)C(=O)N[C@H](Cc1ccc(O)cc1)C(=O)N[C@H](Cc1ccc2ccccc2c1)C(N)=O [Compound 28, Lys-Lys-Lys-leu-(2-Nal)ala-tyr-(2-Nal)ala] (H-KKK[dL][d2Nal][dY][d2Nal]-NH2; N-terminus assumed) | 2 to 4 µg/mL | – | 32 µg/mL | 64% | – | 6 µM | 50 µM | – | – | –
12 | Lys-Lys-Lys-Leu-(2-Nal)Ala-Tyr-(2-Nal)Ala [Compound 22] | – | – | – | – | >64 µg/mL | 117 µM | – | 16 µg/mL | >64 µg/mL | 14%
